Patent publication US12370193B2, “Method of inhibiting TREM-1” (UNIVERSITY OF FLORIDA RESEARCH FOUNDATION, INCORPORATED, priority 2019, dated 2025)

How the values were obtained:
[1] = test system: RORα; assay: Gal4-RORα co-transfection promoter-reporter assay; type: cell-based; details: Gal4 assay format
Experimental: (§1) Reporter gene assays: Twenty-four hours before transfection, HEK293T cells were plated in 96-well plates at a density of 15×10^3 cells per well. UAS:luciferase reporter and Ga14-RORa, Gal4-RORb, Gal4-RORγ, Gal4-LXRα, or Gal4 PPARγ DNA co-transfections were performed using X-tremeGENE 9 (Roche). Twenty-four hours after transfection, the cells were treated with vehicle or compound. Twenty-four hours after treatment, the luciferase activity was measured using the Dual-Glo luciferase assay system (Promega). Results were analyzed using GraphPad Prism software.

[2] = test system: diet-induced obesity; assay: Diet-induced obese (DIO) mouse model; type: in vivo, DIO mice
[3] = Food intake in lean mice and conditioned taste aversion; type: in vivo
[4] = test system: RORβ; assay: Gal4-RORβ co-transfection promoter-reporter assay; type: cell-based; details: Gal4 assay format
Experimental: as §1

[5] = test system: murine TREM1 promoter; assay: TREM1 promoter reporter (luciferase) assay; type: cell-based, Mus musculus
Experimental: Each LXRβ, PPARγ, and RORγ full length plasmid was co-transfected with TREM1/pGL3 using X-tremeGENE 9 into HEK293T cells. After 48 hrs, luciferase activity was measured using BriteLite plus assay system (PerkinElmer).

[6] = Pharmacokinetics in mice; type: in vivo; details: 20 mg/kg twice-a-day
Experimental: Compound was formulated in 10/10/80 DMSO/Tween80/Water and administered to mice at either 20 mg/kg by oral gavage or at 25 mg/kg via intraperitoneal injection. Blood was drawn at the indicated times and plasma was generated. Following solid phase extraction, drug levels were quantitated using LC-MSMS.

[7] = test system: TREM-1; assay: TREM-1 surface expression by FACS in LPS-stimulated RAW264.7 cells; type: cell-based, mouse; details: 50 hr incubation
Experimental: FIG. 2B are graphs showing TREM-1 gene expression by q-PCR. […] All experiments were performed with 3 biological replicates and the median value of TREM-1 fluorescence was represented by the graph on the bottom.
Flow cytometry and antibodies: For the analysis of macrophage activation, RAW264.7 cells (American Type Culture Collection) were pre-incubated with 5 μM 1903 for 18 h then stimulated with 1 μg/mL LPS (Escherichia coli 0127:B8, Sigma-Aldrich (St. Louis, MO)) for 6 h. RAW264.7 cells were stained with APC conjugated anti-TREM-1 antibody (eBioscience). Cell sorting was performed using LSRII (BD Bioscience).

[8] = test system: collagen-induced arthritis; assay: Collagen-induced arthritis (CIA) mouse model
Experimental: Clinical score was monitored every day after boosting during 18 days. […] The dosage of all compounds was identical in each group.
Briefly, DBA/1J mice were injected with chicken type II collagen on day 1 and then each animal received a boost injection of collagen on Day 21. Compound treatment, initiated on day 3-post boost injection, was administered intraperitoneally at 20 mg/kg twice-a-day for a total of 16 days. […] Mice: All mice were maintained in a specific pathogen-free environment in accordance with institutional protocol. […] Female DBA/1J mice were purchased from Taconic. CIA was induced in 8 weeks as previously described^40.

[9] = target: T1, LXRα (Homo sapiens, UniProt Q13133); assay: Gal4-LXRα co-transfection promoter-reporter assay; type: cell-based; details: HEK293T cells, read-out: LXR agonist activity EC50
T1 sequence (Q13133 209-447 limits assumed): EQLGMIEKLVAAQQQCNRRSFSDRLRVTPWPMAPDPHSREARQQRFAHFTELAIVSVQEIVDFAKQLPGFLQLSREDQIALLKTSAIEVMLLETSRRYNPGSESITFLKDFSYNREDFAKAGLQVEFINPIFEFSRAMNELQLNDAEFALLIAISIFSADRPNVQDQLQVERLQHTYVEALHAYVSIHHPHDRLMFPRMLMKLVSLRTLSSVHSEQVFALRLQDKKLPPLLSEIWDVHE
From the text: FIGS. 1A to 1E: Pan modulator with poly-pharmacology. […] FIG. 1D is a graph showing PPARγ target genes (aP2 and CD36) expression in OP9 cells with and without MDI (IBMX, dexamethasone, insulin) treatment. […] SR1903 is represented as orange sticks while PPARγ, RORγ, and LXRβ are depicted as blue ribbons respectively. Specific residues driving the interaction labelled and shown as sticks as well. […] FIG. 1F are graphs showing RORγ target genes (IL17A and IL17F) expression in EL4 cells.
as §1

[10] = 22-week-old DIO mice, 14 days, 20 mg/kg
[11] = DIO mice, 20 mg/kg i.p. for 14 days

For `Cc1cc(CN2CCN(Cc3ccncc3)CC2)ccc1-c1ccc(C(O)(C(F)(F)F)C(F)(F)F)cc1` [SR1903, 1,1,1,3,3,3-hexafluoro-2-(2′-methyl-4′-((4-(pyridin-4-ylmethyl)piperazin-1-yl)methyl)-[1,1′-biphenyl]-4-yl)propan-2-ol], the “activity on RORα” value [1] was “lack activity”, the “obesity related thymic involution” value [2, 10] was “protected from obesity related thymic involution” and the thymus weight [2, 10] was “increase in thymus weight”. For the same compound, the “Socs3 expression in the hypothalamus” value ([2]; DIO mice) was “repressed”, the “fasting and fed insulin levels” value ([2]; DIO mice) was “improved” and the fasting leptin levels ([2]; DIO mice) was “did not alter”. The food intake ([2]; DIO mice) was “reduced food intake”, the “leptin resistance (leptin sensitivity test)” value ([2]; DIO mice) was “reduced” and the “differentiation of αβTCR+CD4+ and αβTCR+CD8+ cells” value ([2]; DIO mice thymocytes) was “no effect”. The λδT cell differentiation ([2]; DIO mice thymocytes) was “increase”, the “HDL, TAG, and FFA” value [2, 11] was “no effect” and the fasting glucose levels [2, 11] was “improved”. For the same compound, the “glucose excursion in glucose tolerance test” value [2, 11] was “statistically significant improvement”, the “total cholesterol and LDL” value [2, 11] was “reduced” and the body weight reduction ([2]; DIO mice, 14 days of treatment) was roughly 15%. The “reduction of fat mass” value ([2]; DIO mice, 14 days, determined by NMR) was roughly 17%, the “leptin in freely feeding mice” value ([2]; DIO mice, compared to vehicle) was “statistically reduced” and the conditioned taste aversion ([3]; 20 mg/kg) was “no effect”. The food intake ([3]; lean mice) was “no effect on food intake”, the “activity on RORβ” value [4] was “lack activity” and the “effect on TREM1 promoter activity” value ([5]; co-expression with PPARγ and LXRβ) was “little effect”. The “attenuation of TREM1 promoter activity” value ([5]; co-expression with RORγ) was roughly 50%, the “plasma exposure relative to IC50” value [6] was “sufficient to have compound levels above its IC50” and the “LPS-induced TREM1 cell surface expression” value [7] was “completely blocked”. The “enlargement of the liver” value ([8]; CIA mice, 20 mg/kg) was “did not cause enlargement of the liver”, the “thymocyte differentiation and survival” value ([8]; CIA mice, compared to GW3965 or T0901317) was “enhanced thymocyte differentiation and survival” and the arthritis clinical score ([8]; Day 34, 20 mg/kg i.p. twice-a-day, vehicle 13.6±2.9) was 3.8±2.5. For the same compound, the intrathymic cell number ([8]; treated mice, unlike SR2211 treated mice) was “enriched” and the EC50 [9] was 689 nM.
